Test [1] concerns coronary artery (isolated heart). The test is described as follows: Coronary vascular dilative effect, isolated perfused guinea pig heart, Langendorff's method (perfusion pressure). Particulars: for Pharmacological data ED50: 0.1 ml injected into coronary artery, isolated guinea pig heart, 37° C., 6 ml/minute; for coronary vascular dilative effects (in words): Langendorff's method, guinea pig heart. How it is done:
The coronary vascular dilative effect of 3N-substituted 3,4-dihydropryrimidine derivatives was tested.
Heartly guinea pigs (weight 400-500 g) were clubbed dead and their hearts were immediately isolated. The hearts were perfused with Krebs-Henseleit solution bubbled with a mixture of 95% O2 +5% CO2 and maintained at 37° C. at a certain rate of 6 ml/minute according to Langendorff's method [J. Pharmacol. Methods 2, 143 (1979)]. The perfusion pressure was determined by a pressure transducer. Samples were prepared by dissolving 1 mg of a test compound in 1 ml of a mixture of dimethylsulfoxide and physiological saline (1:9) and diluting with physiological saline the solution to the predetermined concentration. 0.1 ml of the diluted solution was administered into the coronary artery via a rubber tube connected to an aorta cannula to obtain ED50 (μg/heart) data as shown in Table 1. The numbers of the compounds in the Table correspond respectively to those of the working examples described above.

For test [2], the system named is vertebral artery. Briefly: Blood flow and blood vessel resistance of vertebral artery in anesthetized dogs. The test is classed as in vivo, dog. Particulars: Canis lupus familiaris, iv, % of value before administration, average ± standard error. As for the experimental part:
(§1) The pharmacological effects of the compounds of the present invention with respect to the blood flow and blood vessel resistance of vertebral artery and systemic blood pressure (average pressure) in anesthetized dogs. […] The first and second ribs were cut open to expose the left vertebral artery. A probe was attached to the origin of the artery and the blood flow was measured with an electromagnetic rheometer (Model MF-27, product of Nihon Koden K.K.) At the same time, continuous measurement of the following parameters was made: systemic blood pressure (average pressure) at the right femoral artery, the ECG in the second induction period, the heart beat with a tachometer driven by the R wave, and the blood vessel resistance determined by loading a multiplication/division unit (EO-601 G, product of Nihon Koden K.K.) with the average values of blood pressure and blood flow in the vertebral artery. All of these parameters were recorded simultaneously on a polygraph (RM-600, product of Nihon Koden, K.K.) All of the test compounds were injected through a cannula inserted into the femoral […].

The subject of test [3] is systemic blood pressure. The test is described as follows: Systemic blood pressure (average pressure) in anesthetized dogs. In kind it is in vivo, dog. To be noted: Canis lupus familiaris, iv, % of value before administration, average ± standard error, read-out: Average blood pressure, percentage compared with control. As for the experimental part: as §1
Where [4] appears, read: read-out: Vertebral artery blood flow, percentage compared with control.
Where [5] appears, read: read-out: Vertebral artery vessel resistance, percentage compared with control.

Read-outs that look alike come from different tables or passages of the source.

For `CCOC(=O)C1=C(C)N=C(C)N(C(=O)OCC)C1c1ccccc1Cl` (stereo not drawn) [Compound 22], in test [1], the “Pharmacological data ED50” value was 0.086 μg/heart and the “coronary vascular dilative effects (in words)” value is “extremely strong coronary vascular dilative effects”. For the same compound, in test [2] (setting [4]), the response vs control in vivo at 0.001 mg/kg came out at 105%, the response vs control in vivo at 0.003 mg/kg turned out to be 119%, the response vs control in vivo at 0.01 mg/kg was determined as 136% and the response vs control in vivo at 0.03 mg/kg is 188%. Also, the response vs control in vivo at 0.1 mg/kg in test [2] (setting [4]) stood at 229%. For the same compound, in test [2] (setting [5]), the response vs control in vivo at 0.001 mg/kg was 96%, the response vs control in vivo at 0.003 mg/kg was 80%, the response vs control in vivo at 0.01 mg/kg came out at 65% and the response vs control in vivo at 0.03 mg/kg was found to be 49%. For the same compound, the response vs control in vivo at 0.1 mg/kg in test [2] (setting [5]) turned out to be 39%. For the same compound, in test [3], the response vs control in vivo at 0.001 mg/kg worked out at 94%, the response vs control in vivo at 0.003 mg/kg was found to be 89%, the response vs control in vivo at 0.01 mg/kg stood at 82% and the response vs control in vivo at 0.03 mg/kg came to 85%. Moreover, the response vs control in vivo at 0.1 mg/kg in test [3] came out at 79%.

Regarding `CCOC(=O)C1=C(C)N=C(C)N(C(=O)OCC)C1c1ccccc1Br` (stereo not drawn) [Compound 8], in test [1], the “Pharmacological data ED50” value is on record as 0.033 μg/heart and the “coronary vascular dilative effects (in words)” value is given as “extremely strong coronary vascular dilative effects”. Besides, in test [2] (setting [4]), the response vs control in vivo at 0.001 mg/kg was found to be 110%, the response vs control in vivo at 0.003 mg/kg was found to be 117%, the response vs control in vivo at 0.01 mg/kg was determined as 140% and the response vs control in vivo at 0.03 mg/kg is 182%. For the same compound, the response vs control in vivo at 0.1 mg/kg in test [2] (setting [4]) came to 211%. Besides, in test [2] (setting [5]), the response vs control in vivo at 0.001 mg/kg was 89%, the response vs control in vivo at 0.003 mg/kg is 81%, the response vs control in vivo at 0.01 mg/kg was determined as 64% and the response vs control in vivo at 0.03 mg/kg is 48%. The response vs control in vivo at 0.1 mg/kg in test [2] (setting [5]) is 40%. In addition, in test [3], the response vs control in vivo at 0.001 mg/kg was determined as 93%, the response vs control in vivo at 0.003 mg/kg worked out at 87%, the response vs control in vivo at 0.01 mg/kg was found to be 81% and the response vs control in vivo at 0.03 mg/kg was determined as 83%. For the same compound, the response vs control in vivo at 0.1 mg/kg in test [3] came out at 79%.

As to `CCOC(=O)C1=C(C)N=C(C)N(C(=O)OCC)C1c1ccccc1[N+](=O)[O-]` (stereo not drawn) [Compound 1, 2,6-Dimethyl-5-ethoxycarbonyl-3-N-ethoxycarbonyl-4-(2'-nitrophenyl)-3,4-dihydropyrimidine], in test [1], the “Pharmacological data ED50” value was 0.055 μg/heart and the “coronary vascular dilative effects (in words)” value is reported as “extremely strong coronary vascular dilative effects”. Besides, in test [2] (setting [4]), the response vs control in vivo at 0.0003 mg/kg was 107 ± 4%, the response vs control in vivo at 0.001 mg/kg is 115 ± 9%, the response vs control in vivo at 0.003 mg/kg was 136 ± 6% and the response vs control in vivo at 0.01 mg/kg was determined as 172 ± 20%. In addition, in test [2] (setting [4]), the response vs control in vivo at 0.03 mg/kg amounted to 184 ± 26% and the response vs control in vivo at 0.1 mg/kg was 234%. In test [2] (setting [5]), the response vs control in vivo at 0.0003 mg/kg worked out at 93 ± 5%, the response vs control in vivo at 0.001 mg/kg is 89 ± 4%, the response vs control in vivo at 0.003 mg/kg stood at 72 ± 5% and the response vs control in vivo at 0.01 mg/kg was determined as 55 ± 3%. In test [2] (setting [5]), the response vs control in vivo at 0.03 mg/kg is 50 ± 6% and the response vs control in vivo at 0.1 mg/kg worked out at 41%. The response vs control in vivo at 0.0003 mg/kg in test [3] (0.0003 mg/kg) worked out at 94 ± 3%. Moreover, in test [3], the response vs control in vivo at 0.001 mg/kg came out at 90 ± 1%, the response vs control in vivo at 0.003 mg/kg came to 88 ± 1%, the response vs control in vivo at 0.01 mg/kg amounted to 79 ± 3% and the response vs control in vivo at 0.03 mg/kg is 74 ± 4%. For the same compound, in test [3], the response vs control in vivo at 0.1 mg/kg turned out to be 75%.

In the case of `CCOC(=O)C1=C(Cl)N=C(C)N(C(=O)OCC)C1c1cccc([N+](=O)[O-])c1` (stereo not drawn) [Compound 13], in test [1], the “Pharmacological data ED50” value is on record as 0.48 μg/heart. In addition, in test [2] (setting [4]), the response vs control in vivo at 0.003 mg/kg was 108%, the response vs control in vivo at 0.01 mg/kg turned out to be 126%, the response vs control in vivo at 0.03 mg/kg was 128% and the response vs control in vivo at 0.1 mg/kg is 158%. Also, in test [2] (setting [4]), the response vs control in vivo at 0.3 mg/kg is 179% and the response vs control in vivo at 1 mg/kg is 216%. Also, in test [2] (setting [5]), the response vs control in vivo at 0.003 mg/kg stood at 89%, the response vs control in vivo at 0.01 mg/kg stood at 81%, the response vs control in vivo at 0.03 mg/kg came to 73% and the response vs control in vivo at 0.1 mg/kg was found to be 54%. Besides, in test [2] (setting [5]), the response vs control in vivo at 0.3 mg/kg stood at 46% and the response vs control in vivo at 1 mg/kg came to 41%. In addition, in test [3], the response vs control in vivo at 0.003 mg/kg was determined as 94%, the response vs control in vivo at 0.01 mg/kg worked out at 92%, the response vs control in vivo at 0.03 mg/kg is 88% and the response vs control in vivo at 0.1 mg/kg worked out at 78%. For the same compound, the response vs control in vivo at 0.3 mg/kg in test [3] (0.3 mg/kg) was determined as 78%. The response vs control in vivo at 1 mg/kg in test [3] (1.0 mg/kg) came to 77%.

Take `CCOC(=O)C1=C(C)N=C(C)N(C(=O)OCC)C1c1cccc([N+](=O)[O-])c1` (stereo not drawn) [Compound 12]: the “Pharmacological data ED50” value in test [1] came out at 1.9 μg/heart. In addition, in test [2] (setting [4]), the response vs control in vivo at 0.003 mg/kg was 129 ± 11%, the response vs control in vivo at 0.01 mg/kg amounted to 148 ± 3%, the response vs control in vivo at 0.03 mg/kg came out at 163 ± 7% and the response vs control in vivo at 0.1 mg/kg amounted to 200 ± 6%. In test [2] (setting [5]), the response vs control in vivo at 0.003 mg/kg is 86 ± 2%, the response vs control in vivo at 0.01 mg/kg came to 73 ± 3%, the response vs control in vivo at 0.03 mg/kg turned out to be 62 ± 4% and the response vs control in vivo at 0.1 mg/kg stood at 47 ± 5%. In test [3], the response vs control in vivo at 0.003 mg/kg is 93 ± 0.3%, the response vs control in vivo at 0.01 mg/kg was found to be 86 ± 1%, the response vs control in vivo at 0.03 mg/kg is 84 ± 3% and the response vs control in vivo at 0.1 mg/kg is 77 ± 2%.

On to `COC(=O)C1=C(C)N=C(C)N(C(=O)OC)C1c1cccc([N+](=O)[O-])c1` (stereo not drawn) [Compound 17], for which the “Pharmacological data ED50” value in test [1] is listed as 2.5 μg/heart. In test [2] (setting [4]), the response vs control in vivo at 0.001 mg/kg was 100%, the response vs control in vivo at 0.003 mg/kg was determined as 106%, the response vs control in vivo at 0.01 mg/kg was determined as 108% and the response vs control in vivo at 0.03 mg/kg came to 129%. In test [2] (setting [4]), the response vs control in vivo at 0.1 mg/kg came to 148%. Further, in test [2] (setting [5]), the response vs control in vivo at 0.001 mg/kg is 97%, the response vs control in vivo at 0.003 mg/kg turned out to be 95%, the response vs control in vivo at 0.01 mg/kg worked out at 89% and the response vs control in vivo at 0.03 mg/kg came out at 77%. In test [2] (setting [5]), the response vs control in vivo at 0.1 mg/kg came out at 67%. Further, in test [3], the response vs control in vivo at 0.001 mg/kg is 95%, the response vs control in vivo at 0.003 mg/kg was 90%, the response vs control in vivo at 0.01 mg/kg was found to be 89% and the response vs control in vivo at 0.03 mg/kg amounted to 86%. The response vs control in vivo at 0.1 mg/kg in test [3] amounted to 74%.

These data come from patent US4640922A, “3N-substituted 3,4-dihydropyrimidines as agents for treating disorders of cardiovascular system” (Suntory Limited, priority 1984, dated 1987).
